Reference: article PMC6830213, “High-throughput structures of protein–ligand complexes at room temperature using serial femtosecond crystallography” (IUCrJ, 2019)
Each block holds one molecule with its values, some of them ahead of it.

Key:
[1] = molecular target: T1, dehaloperoxidase B (DHP-B; DHP) (Amphitrite ornata, UniProt Q9NAV7); assay: SFX crystal structure, room temperature, […] A; format: binding; details: 3-5 min, distal heme pocket, not bound to iron
T1 construct: homodimer in the asymmetric unit

[2] = molecular target: Dye-type peroxidase Aa from Streptomyces lividans (Streptomyces lividans); assay: crystal structure; serial femtosecond crystallography at room temperature, microcrystals on silicon fixed-target chips, SACLA beamline BL2 EH3; two monomers (homodimer) in the crystallographic asymmetric unit
[3] = molecular target: the molecule itself; assay: as above

Molecule: Oc1ccc(Cl)cc1Cl [2,4-dichlorophenol]
- SFX crystal structure, room temperature, 1.85 A ([1]; crystals pH 6.0, soaked 5 mM, near-full occupancy in monomer B): DCP exhibited a binding site that was virtually identical to those previously observed

- stoichiometry N [2]: 2
Molecule: Dye-type peroxidase Aa from Streptomyces lividans (enzyme)

Molecule: Brc1ccc2[nH]ccc2c1 [5-bromoindole]
- SFX crystal structure, room temperature, 1.85 A ([1]; crystals pH 6.0, soaked 50 mM, lower occupancy in second monomer): the 5BR complex was consistent with a computationally hypothesized binding site

B1: Dehaloperoxidase B from Amphitrite ornata (enzyme)
chain: GFKQDIATLRGDLRTYAQDIFLAFLNKYPDEKRNFKNYVGKSDQELKSMAKFGDHTEKVFNLMMEVADRATDCVPLASDASTLVQMKQHSGLTTGNFEKLFVALVEYMRASGQSFDSQSWDRFGKNLVSALSSAGMK
notes: Dehaloperoxidase B (DHP-B), heme peroxidase from the marine annelid Amphitrite ornata; Heme protein; Crystallised with the small ligands DCP or 5BR soaked in; also called DHP-B; DHP; source: expressed and purified as described previously (McCombs, Moreno-Chicano et al., 2017)
- stoichiometry N [3]: 2
